The record followed here is patent publication US11497212B2, “Substituted thiophenyl uracils, salts thereof and the use thereof as herbicidal agents” (Syngenta Crop Protection AG, priority 2017, dated 2022).

Common to all, as to format: in vivo
One data set has as its system Echinochloa crus-galli. In words: Herbicidal action post-emergence (greenhouse pot trial). To be noted: application rate 20 g/ha, scored visually after about 3 weeks vs untreated controls. A digest of the protocol: (§1)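 Weed seeds sown in sandy loam were grown in a greenhouse for 2–3 weeks and treated at the one-leaf stage. WP or EC formulations, with 0.5% additive, were sprayed on green parts at a water rate of 600 L/ha and at 80 g/ha or lower. Efficacy was scored visually about 3 weeks later against untreated controls.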

For another data set, the system named is Matricaria inodora. Described as above. The settings on record: application rate 20 g/ha, scored visually after about 3 weeks vs untreated controls. In short, it runs like this:
as §1

A further data set relates to Veronica persica. Described as above. To be noted: application rate 20 g/ha. A digest of the protocol:
as §1

Another data set has as its system Stellaria media. Described as above. The settings on record: application rate 20 g/ha, scored visually after about 3 weeks vs untreated controls. In short, it runs like this:
as §1

In a further data set the test system is Polygonum convolvulus. Described as above. To be noted: application rate 20 g/ha, scored visually after about 3 weeks vs untreated controls. In short, it runs like this: as §1
For another data set, the system named is Viola tricolor. Described as above. The settings on record: application rate 20 g/ha. A digest of the protocol:
as §1

A further data set concerns Abutilon theophrasti. Described as above. To be noted: application rate 20 g/ha, scored visually after about 3 weeks vs untreated controls. A digest of the protocol:
as §1

For the next data set, the system named is Amaranthus retroflexus. The data set is described as above. The settings on record: application rate 20 g/ha, scored visually after about 3 weeks vs untreated controls. In short, it runs like this: as §1
In the next data set the test system is Glycine max. In words: Crop compatibility post-emergence (greenhouse pot trial). A digest of the protocol:
(§2)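 Crops grown in sandy loam in greenhouse, sprayed at one-leaf stage (2–3 weeks after sowing) with WP or EC formulations in water plus 0.5% additive, 600 L/ha. Damage scored visually after about 3 weeks versus untreated controls, 0% = like control, 100% = dead.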

The test system of a further data set is Oryza sativa. The data set is described as above. The settings on record: application rate 20 g/ha. In short, it runs like this:
as §2

For a further data set, the system named is Triticum aestivum. Described as above. To be noted: application rate 20 g/ha. A digest of the protocol:
as §2

The next data set has as its system Zea mays. The data set is described as above. A digest of the protocol:
as §2

Another data set has as its system Setaria viridis. In words: Herbicidal action post-emergence (greenhouse pot trial). The settings on record: application rate 20 g/ha, scored visually after about 3 weeks vs untreated controls. A digest of the protocol:
as §1

In the next data set the test system is Pharbitis purpurea. The data set is described as above. The settings on record: application rate 20 g/ha. A digest of the protocol:
as §1

A further data set concerns Digitaria sanguinalis. Described as above. To be noted: application rate 20 g/ha. In short, it runs like this:
as §1

The subject of the next data set is Lolium rigidum. The data set is described as above. The settings on record: application rate 20 g/ha, scored visually after about 3 weeks vs untreated controls. A digest of the protocol: as §1

Turning to `CCC(Sc1cc(-n2c(=O)c(C)c(C(F)(F)F)n(C)c2=O)c(F)cc1Cl)C(=O)OCC1CCOC1` (centres unmarked) [I.12-72, Tetrahydrofuran-3-ylmethyl 2-({2-chloro-4-fluoro-5-[3,5-dimethyl-2,6-dioxo-4-(trifluoromethyl)-3,6-dihydropyrimidin-1(2H)-yl]phenyl}sulfanyl)butanoate], the “Echinochloa crus-galli (Efficacy in %)” value in the data set on Echinochloa crus-galli amounted to 100%. Moreover, the “Matricaria inodora (Efficacy in %)” value with Matricaria inodora is recorded as 100%. Besides, in the data set with Veronica persica, the “Veronica persica (Efficacy in %)” value is 100%. In addition, the “Stellaria media (Efficacy in %)” value in the data set with Stellaria media worked out at 100%. For the same molecule, the “Polygonum convolvulus (Efficacy in %)” value in the data set on Polygonum convolvulus is recorded as 100%. Also, the “Viola tricolor (Efficacy in %)” value in the data set on Viola tricolor turned out to be 100%. In addition, in the data set with Abutilon theophrasti, the “Abutilon theophrasti (Efficacy in %)” value amounted to 100%. For the same molecule, the “Amaranthus retroflexus (Efficacy in %)” value in the data set with Amaranthus retroflexus worked out at 100%. In addition, the “Glycine max (Efficacy in %)” value in the data set on Glycine max (application rate 5 g/ha) is 20%. The “Oryza sativa (Efficacy in %)” value with Oryza sativa came to 20%. Moreover, the “Triticum aestivum (Efficacy in %)” value in the data set with Triticum aestivum was found to be 0%. Further, the “Zea mays (Efficacy in %)” value in the data set on Zea mays (application rate 5 g/ha) amounted to 0%.

Consider `Cc1c(C(F)(F)F)n(C)c(=O)n(-c2cc(SC(CC(C)C)C(=O)OCC3CCOC3)c(Cl)cc2F)c1=O` (centres unmarked) [I.14-72], for which, in the data set on Matricaria inodora, the “Matricaria inodora (Efficacy in %)” value came out at 80%. Also, in the data set on Veronica persica, the “Veronica persica (Efficacy in %)” value worked out at 100%. In the data set with Polygonum convolvulus, the “Polygonum convolvulus (Efficacy in %)” value was determined as 80%. The “Viola tricolor (Efficacy in %)” value in the data set with Viola tricolor was 100%. For the same molecule, the “Setaria viridis (Efficacy in %)” value with Setaria viridis was 100%. The “Pharbitis purpurea (Efficacy in %)” value in the data set with Pharbitis purpurea is on record as 80%. For the same molecule, the “Abutilon theophrasti (Efficacy in %)” value in the data set with Abutilon theophrasti came to 80%. Besides, the “Amaranthus retroflexus (Efficacy in %)” value in the data set with Amaranthus retroflexus came out at 100%. Also, in the data set with Glycine max (application rate 20 g/ha), the “Glycine max (Efficacy in %)” value was determined as 20%. Besides, in the data set on Oryza sativa, the “Oryza sativa (Efficacy in %)” value worked out at 0%. Also, the “Triticum aestivum (Efficacy in %)” value in the data set on Triticum aestivum was 20%.

As for `Cc1c(C(F)(F)F)n(C)c(=O)n(-c2cc(SC(CC(C)C)C(=O)OCC3CCCO3)c(Cl)cc2F)c1=O` (centres unmarked) [I.14-71], the “Veronica persica (Efficacy in %)” value in the data set on Veronica persica is given as 100%. Besides, the “Pharbitis purpurea (Efficacy in %)” value in the data set with Pharbitis purpurea is recorded as 100%. For the same molecule, the “Abutilon theophrasti (Efficacy in %)” value in the data set on Abutilon theophrasti is 100%. Further, the “Amaranthus retroflexus (Efficacy in %)” value in the data set with Amaranthus retroflexus is 100%. Besides, the “Glycine max (Efficacy in %)” value in the data set with Glycine max (application rate 20 g/ha) is listed as 0%. Moreover, in the data set on Oryza sativa, the “Oryza sativa (Efficacy in %)” value amounted to 0%. Besides, the “Triticum aestivum (Efficacy in %)” value with Triticum aestivum stood at 0%. Besides, the “Zea mays (Efficacy in %)” value in the data set on Zea mays (application rate 20 g/ha) was determined as 0%.

For `CCC(C)C(Sc1cc(-n2c(=O)cc(C(F)(F)F)n(C)c2=O)c(F)cc1Cl)C(=O)NCC1CCCO1` (centres unmarked) [I.5-221], the “Echinochloa crus-galli (Efficacy in %)” value with Echinochloa crus-galli amounted to 80%. For the same molecule, in the data set with Digitaria sanguinalis, the “Digitaria sanguinalis (Efficacy in %)” value turned out to be 80%. Further, in the data set with Matricaria inodora, the “Matricaria inodora (Efficacy in %)” value was found to be 100%. In the data set on Veronica persica, the “Veronica persica (Efficacy in %)” value is recorded as 100%. For the same molecule, in the data set with Stellaria media, the “Stellaria media (Efficacy in %)” value stood at 90%. For the same molecule, the “Polygonum convolvulus (Efficacy in %)” value in the data set on Polygonum convolvulus is recorded as 100%. The “Viola tricolor (Efficacy in %)” value in the data set with Viola tricolor is on record as 100%. For the same molecule, the “Setaria viridis (Efficacy in %)” value in the data set with Setaria viridis is 100%. In the data set on Lolium rigidum, the “Lolium rigidum (Efficacy in %)” value worked out at 80%. For the same molecule, in the data set with Pharbitis purpurea, the “Pharbitis purpurea (Efficacy in %)” value is reported as 100%. The “Abutilon theophrasti (Efficacy in %)” value in the data set with Abutilon theophrasti was found to be 100%. Moreover, the “Amaranthus retroflexus (Efficacy in %)” value in the data set on Amaranthus retroflexus was determined as 100%. For the same molecule, in the data set with Triticum aestivum, the “Triticum aestivum (Efficacy in %)” value worked out at 20%.
